Results from article PMC9101642 (Molecules, 2022).
Marks after values point to notes of the source that are not given here.

Assays:
ERα [1] = target: T1, ERα (Homo sapiens, UniProt P03372); experiment: Fluorescence polarization competition assay: antagonistic potency and relative binding affinity; details: for Ki: calculated antagonistic (inhibitory) constant, read-out: Ka ERα; for IC50: concentration that antagonizes 50% of ERα signaling activity, read-out: ERα (IC50 nM); for logRBA ERα: log of % relative binding affinity, estradiol = 100%; for ERα potency, fold higher than Ral: ratio of IC50 values
T1 sequence (P03372 1-595): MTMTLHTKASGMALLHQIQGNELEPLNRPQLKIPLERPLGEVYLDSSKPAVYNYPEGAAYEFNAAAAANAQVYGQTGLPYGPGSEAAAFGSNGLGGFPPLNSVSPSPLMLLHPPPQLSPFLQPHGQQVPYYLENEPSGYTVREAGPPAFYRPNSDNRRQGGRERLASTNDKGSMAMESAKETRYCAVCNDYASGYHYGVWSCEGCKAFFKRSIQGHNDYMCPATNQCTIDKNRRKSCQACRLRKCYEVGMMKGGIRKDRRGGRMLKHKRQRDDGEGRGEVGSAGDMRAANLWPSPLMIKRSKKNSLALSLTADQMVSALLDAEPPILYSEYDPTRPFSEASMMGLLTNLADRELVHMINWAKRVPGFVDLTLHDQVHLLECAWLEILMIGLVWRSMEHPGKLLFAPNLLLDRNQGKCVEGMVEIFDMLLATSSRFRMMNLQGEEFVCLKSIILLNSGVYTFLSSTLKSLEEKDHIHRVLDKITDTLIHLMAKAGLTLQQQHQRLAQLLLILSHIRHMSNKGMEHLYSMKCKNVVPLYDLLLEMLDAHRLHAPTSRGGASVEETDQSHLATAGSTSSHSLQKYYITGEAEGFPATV

ERβ = ERβ (Homo sapiens, UniProt Q92731); experiment: as above; details: for Ki: calculated antagonistic (inhibitory) constant, read-out: Ka ERβ; for IC50: concentration that antagonizes 50% of ERβ signaling activity, read-out: ERβ (IC50 nM); for logRBA ERβ: log of % relative binding affinity, estradiol = 100%
Sequence of ERβ (Q92731 whole entry): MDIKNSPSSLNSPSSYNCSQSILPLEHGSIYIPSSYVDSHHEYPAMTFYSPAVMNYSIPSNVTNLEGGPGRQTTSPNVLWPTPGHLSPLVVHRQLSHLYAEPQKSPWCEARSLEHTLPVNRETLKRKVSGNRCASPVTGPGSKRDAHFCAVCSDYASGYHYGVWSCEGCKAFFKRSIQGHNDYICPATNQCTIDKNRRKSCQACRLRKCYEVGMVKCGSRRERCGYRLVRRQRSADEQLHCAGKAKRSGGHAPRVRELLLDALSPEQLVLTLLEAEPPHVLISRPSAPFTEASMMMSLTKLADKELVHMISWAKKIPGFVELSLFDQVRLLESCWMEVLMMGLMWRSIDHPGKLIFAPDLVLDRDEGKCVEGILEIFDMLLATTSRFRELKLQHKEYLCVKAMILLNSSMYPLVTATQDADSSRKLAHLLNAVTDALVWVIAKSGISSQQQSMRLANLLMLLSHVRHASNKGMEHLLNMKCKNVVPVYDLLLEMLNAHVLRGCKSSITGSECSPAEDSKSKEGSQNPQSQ

MCF-7 cell lines = experiment: MTT antiproliferative assay; assay type: cell-based, human; details: for IC50: Homo sapiens, MCF7, growth inhibition, 48 h, read-out: MCF-7 (IC50 nM)
MDA-MB-231 cell lines = experiment: MTT antiproliferative assay; assay type: cell-based, human; details: Homo sapiens, MDA-MB-231; growth inhibition, 48 h; read-out: MDA-MB-231 (IC50 nM)
ERα [2] = target: T1, ERα; experiment: ERα down-regulation immunofluorescence assay in MCF-7; assay type: cell-based; details: ERα downregulation measured in MCF-7; read-out: MCF-7 DR (IC50 nM)
[3] = tested on: progesterone receptor (PR); experiment: ERα functional antagonism cell assay (PR as biomarker) in MCF-7; assay type: cell-based; details: Homo sapiens, MCF7; progesterone receptor as biomarker for ERα antagonism in MCF-7
[4] = tested on: p53 promoter activity (p21 promoter); experiment: qChIP of ERα-p53 interaction on the p21 promoter in MCF-7; assay type: cell-based, human
[5] = tested on: MNU-induced breast cancer; experiment: In vivo anticancer screening, MNU-induced mammary tumorigenesis; set-up: species or system female Wistar rats
[6] = Plasma protein binding determination; assay type: in vitro ADME, rat; details: rat plasma, 37 °C, read-out: Rat PPB (%free)
Procedure, shortened: (§1)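 Mammary tumours induced in rats by MNU 50 mg/kg i.p. at day 50; after two weeks, compounds given orally at 5 or 50 mg/kg once daily for six weeks. Serum AST, ALT (340 nm), ALP (405 nm) and bilirubin measured; liver homogenate GSH, CAT, MDA by colorimetry; plasma binding by ultrafiltration at 37°C with BCA protein read-out.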

[7] = Liver oxidative stress markers after treatment of MNU-induced rats; assay type: in vivo, Wistar rats; set-up: CAT: unit not given here; details: liver; for CAT: catalase activity; for GSH: reduced glutathione; for SOD (U/mg): superoxide dismutase activity; for TP: total protein content
Procedure, shortened: as §1

[8] = tested on: MNU-induced breast cancer tissue; experiment: Histopathology of breast sections; assay type: in vivo, Wistar rats
Procedure, shortened: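 Rats with MNU-induced breast cancer were given selected leads at two concentrations. Breast tissue was examined histopathologically for lobuloalveolar units and epithelial changes, with slides photographed at 200x.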

[9] = rat, in vivo
[10] = Lipophilicity by shake-flask method; details: pH 7.4
[11] = dose 50 mg/kg (compounds per os after MNU; MNU alone i.p.)

SMILES	Ki (ERα [1])	IC50 (ERα [1])	logRBA ERα (ERα [1])	ERα potency, fold higher than Ral (ERα [1])	Ki (ERβ)	IC50 (ERβ)	logRBA ERβ (ERβ)	IC50 (MCF-7 cell lines)	MCF-7 antiproliferative potency, fold higher than Ral (MCF-7 cell lines; ratio of IC50 values)	IC50 (MDA-MB-231 cell lines)	IC50 (ERα [2])	IC50 [3]	p53 promoter activity, fold higher than the one provoked by Ral ([4]; higher concentration (1 nM))	p53 promoter activity, fold higher than the one provoked by Ral ([4]; lower concentration (0.1 nM))	Tumor Burden (week) ([5]; dose 5 mg/kg per os after MNU)	Tumor Latency (week) ([5]; dose 5 mg/kg per os after MNU)	Tumor Volume (mm^3) ([5]; dose 5 mg/kg per os after MNU)	Tumor Burden (week) [5, 11]	Tumor Latency (week) [5, 11]	Tumor Volume (mm^3) [5, 11]	other results
CC(=O)c1cc(C(=O)O[C@@H]2/C=C/C(=O)O[C@@H](O)CCC/C=C/[C@@H]3C[C@H](O)C[C@H]32)ccc1OCCN1CC(C(=O)O)=CCC1=O [Compound 3DPQ-9, 1-(2-(2-acetyl-4-((((1R,2E,6R,10E,11aS,13S,14aR)-6,13-dihydroxy-4-oxo-4,6,7,8,9,11a,12,13,14,14a-decahydro-1H-cyclopenta[f][1]oxacyclotridecin-1-yl)oxy)carbonyl)phenoxy)ethyl)-6-oxo-1,2,5,6-tetrahydropyridine-3-carboxylic acid]	0.1 nM	0.45 ± 0.14 nM	2.30 ^†,‡,§	1.64 fold	46.9 nM	83.56 ± 0.46 nM	0.03 ^†,‡,§	0.62 ± 0.15 nM	1.46 fold	81.63 ± 0.42 nM	> 100 nM	> 100 nM	0.66 fold	0.68 fold	2.28 ± 0.47 *^,†,‡,‖ week	12 *^,†,‡ week	0.77 ± 0.32 *^,†,‡,‖ mm^3	1.14 ± 0.65 *^,†,§,┴ week	15 *^,†,§ week	0.40 ± 0.43 *^,†,§,┴ mm^3	MCF-7 antiproliferative potency, fold lower than 3DPQ-12 (MCF-7 cell lines; ratio of IC50 values): 1.09 fold; fraction unbound at 5 mg/kg bwt [6]: 0.0128; fraction unbound at 50 mg/kg bwt [6]: 0.0131; CAT ([7]; dose 5 mg/kg): 10.83±0.46; CAT ([7]; dose 50 mg/kg): 13.32±0.54; TBARS ([7]; dose 5 mg/kg): 0.96 nmol/mg; TBARS ([7]; dose 50 mg/kg): 0.96 ± 0.24 nmol/mg; GSH ([7]; dose 5 mg/kg): 8.66 mg/g; GSH ([7]; dose 50 mg/kg): 8.89 mg/g; SOD (U/mg) ([7]; dose 5 mg/kg): 7.74±0.37 U/mg; SOD (U/mg) ([7]; dose 50 mg/kg): 14.43±0.35 U/mg; TP ([7]; dose 50 mg/kg): 39.43 g/L; breast section histopathology ([8]; 5 mg/kg of bwt): lobuloalveolar unit (LaU) and cuboidal epithelial cells (CE); breast section histopathology ([8]; 50 mg/kg of bwt): lobuloalveolar unit (LaU) and cuboidal epithelial cells (CE); WL after MFD (day 1, mg) [9]: 315.54 ± 0.65 mg; logD at 30 min ([10]; n-octanol/phosphate buffer): 2.02
CNCCOc1ccc(C(=O)O[C@@H]2/C=C/C(=O)O[C@@H](O)CCC/C=C/[C@@H]3C[C@H](O)C[C@H]32)cc1C(C)=O [Compound 3DPQ-1, (1R,2E,6R,10E,11aS,13S,14aR)-6,13-dihydroxy-4-oxo-4,6,7,8,9,11a,12,13,14,14a-decahydro-1H-cyclopenta[f][1]oxacyclotridecin-1-yl 3-acetyl-4-(2-(methylamino)ethoxy)benzoate]	0.13 nM	0.57 ± 0.54 nM	2.19 ^‡,§	1.30 fold	41.8 nM	74.33 ± 0.46 nM	0.08 ^†,‡,§	0.76 ± 0.24 nM	1.17 fold	72.44 ± 0.32 nM	> 100 nM	> 100 nM	0.66 fold	0.733 fold	3.38 ± 0.31 ^i,*^,†,‖ week	9 * week	1.09 ± 0.23 *^,†,‡,‖ mm^3	2.04 ± 0.35 *^,†,§,┴ week	12 *^,† week	0.68 ± 0.35 *^,†,§,┴ mm^3	SI (MCF-7 cell lines; selectivity index [IC50(MDA-MB-231)]/[IC50(MCF-7)]): 95.31 ^‡,§; fraction unbound at 5 mg/kg bwt [6]: 0.0133; fraction unbound at 50 mg/kg bwt [6]: 0.0122; CAT ([7]; dose 5 mg/kg): 16.21±0.77; CAT ([7]; dose 50 mg/kg): 17.35±0.56; TBARS ([7]; dose 5 mg/kg): 0.96 nmol/mg; TBARS ([7]; dose 50 mg/kg): 0.65 nmol/mg; GSH ([7]; dose 50 mg/kg): 9.35 ± 0.45 mg/g; SOD (U/mg) ([7]; dose 5 mg/kg): 7.65±0.63 U/mg; SOD (U/mg) ([7]; dose 50 mg/kg): 8.83±0.51 U/mg; TP ([7]; dose 50 mg/kg): 37.21 g/L; breast section histopathology ([8]; 5 mg/kg of bwt): lobuloalveolar unit (LaU) and cuboidal epithelial cells (CE); breast section histopathology ([8]; 50 mg/kg of bwt): lobuloalveolar unit (LaU) and cuboidal epithelial cells (CE); WL after MFD (day 1, mg) [9]: 310.34 ± 0.34 ^i mg; logD at 30 min [10]: 1.94
